From patent US20200061092A1, “METHODS AND COMPOSITIONS FOR TREATING DISORDERS ASSOCIATED WITH MUSCLE WEAKNESS” (priority 2018, published 2020) come the findings set out here.

Where “and” joins values, the source holds several entries; their conditions need not be identical. Identical values can stand only once.

Series [1] has as its system F-α-DG (functionally glycosylated α-DG). Nature of the series: Immunohistochemical staining of F-α-DG with IIH6C4 antibody in muscles of ribitol-treated P448L mice. The series is classed as in vivo, mouse. The method, then: Ribitol was purchased from Sigma (A5502 Adonitol, ≥98%, Sigma, St. Louis) and dissolved in drinking water to the final concentration of 5% or 10%. […] mice aged at 4 weeks were treated with 5% ribitol drinking water for 1 month and […] mice aged at 7 weeks were treated with 5% ribitol drinking water for 3 months and 6 months. All the mice were randomly assigned to either treatment or control groups. And a minimum number of 4 mice were used for each group. No animal was excluded. […] female breeders were given 10% ribitol in drinking water during pregnancy, and pups continued to be treated with 10% ribitol in drinking water until they were euthanized at 19 weeks of age. Untreated age-matched […] and wild-type C57BL/6 mice were used as controls. The animals were terminated at the end of each treatment time point and tissues including heart, diaphragm, TA, quadriceps, liver, spleen and kidney were collected for analyses. […] For immunohistochemical detection of functionally glycosylated α-DG, […] of thickness cross sections of untreated and C57 control, as well as tissues from treated cohorts were included in each slide. Slides were first fixed in ice cold Ethanol:Acetic acid (1:1) for 1 min, blocked with 10% normal goat serum (NGS) in […]-buffer saline (TBS) for 30 min at room temperature, and incubated overnight at 4° C. with primary mouse monoclonal antibody IIH6C4 (EMD Millipore) (1:500) against α-DG. Negative controls received 10% normal goat serum in 1×TBS only. Sections were washed and incubated with secondary AlexaFLuor 488 goat anti-mouse IgM (Invitrogen) (1:500) at room temperature for 2 hr. […] Immunofluorescence was visualized using an Olympus BX51/BX52 fluorescence microscope (Opelco) and images were captured using the Olympus DP70 digital camera system (Opelco). Slides were examined in a blinded manner by the investigator.

A short description of series [2]: Serum ribitol measurement by LC/MS-MS. The series is classed as in vivo. From the text: Ribitol was purchased from Sigma (A5502). Sera were collected, and blinded samples were placed in individual wells of a 96-well plate and analyzed by LC/MS-MS. An Applied Biosystems Sciex 4000 (Applied Biosystems; Foster City, Calif.) equipped with a Shimadzu HPLC (Shimadzu Scientific Instruments, Inc.: Columbia, Md.) and Leap auto-sampler (LEAP Technologies; Carrboro, N.C.) were used to detect ribitol from samples and synthetic compound. […] MeOH:ACN (1:1). The following gradient was used: 0-12 min, 5% buffer B; 13-14 min, 95% buffer B, 15-17 min, 5% buffer B. Under these conditions, ribitol eluted at 8.3 min. The metabolite was analyzed using electrospray ionization mass spectrometry operated in positive ion mode, ESI+. Compound concentrations in tissue samples were determined based on standard curves prepared by serial dilutions (200-0.01 μM) of the compound in MeOH:ACN (1:1).

Where [3] appears, read: 5% ribitol in drinking water (n = 4).

On to `OC[C@@H](O)[C@@H](O)[C@@H](O)CO` [ribitol], for which the “F-α-DG signal by IIH6C4 immunohistochemistry” value in series [1] (5% ribitol in drinking water, 1 month, 4-week-old P448L mice, heart, diaphragm, limb muscles) is on record as “visibly increased F-α-DG”. For the same molecule, the “F-α-DG levels by IIH6C4 immunofluorescence” value in series [1] (5% ribitol in drinking water, 3 and 6 months, from 7 weeks of age, all muscles) is “clear increase in the levels of F-α-DG”. Besides, in series [1] (10% ribitol in drinking water from pregnancy to 19 weeks of age), the “Expression of F-α-DG by immunohistochemistry” value is “detected in all skeletal muscles and in the cardiac muscle”. Moreover, in series [2] (setting [3]), the Mean serum ribitol stood at 2355 ug ug/L; the “Serum ribitol, individual animals” value is 924 ng/ml and 4221 ng/ml and 3184 ng/ml and 1092, ng/ml. The “Therapeutic serum concentration in excess of normal ribitol serum levels” value in series [2] (about 10 mg/L vs normal serum level) was “roughly 1000 ×”. For the same molecule, in series [2] (serum about 10 mg/L), the “Tolerability at therapeutic serum concentration” value is on record as “no observable side effects”.
